Key:
SARS-CoV-2 3CL^pro [1] = biological target: T1, SARS-CoV-2 3CL^pro (Severe acute respiratory syndrome coronavirus 2, UniProt P0DTD1); experiment: biochemical; details: for % Inhibition at 50 μM: 50 μM compound; for inhibition at 50 µM: read-out: % Inhibition at 50 μM, 50 μM compound
[2] = test system: SARS-CoV-2 (C-Tan-nCoV Wuhan strain 01); experiment: microbe, parasite or virus in culture; format: cell-based
SARS-CoV-2 3CL^pro [3] = biological target: T1, SARS-CoV-2 3CL^pro; format: biochemical
SARS-CoV 3CL^pro = SARS-CoV 3CL^pro (Severe acute respiratory syndrome coronavirus, UniProt P0C6X7); format: biochemical
SARS-CoV = details: cited from earlier work

SMILES | inhibition at 50 µM (SARS-CoV-2 3CL^pro [1]) [%] | other results
O=C(O)[C@H]1O[C@@H](Oc2cc3oc(-c4ccc(O)cc4)cc(=O)c3c(O)c2O)[C@H](O)[C@@H](O)[C@@H]1O [Scutellarin] | 28.9 ± 1.6 | % Inhibition at 50 μM (SARS-CoV-2 3CL^pro [1]; 50 µM): mild inhibitory activity
O=c1cc(-c2ccccc2)oc2cc(O)c(O)c(O)c12 [Baicalein] |  | inhibition activity at the post-entry stage [2]: mainly active; EC50 ([2]; Severe acute respiratory syndrome coronavirus 2, Vero, 48 h): 2900 nM; anti-SARS-CoV-2 3CLpro activity in cell lysate (SARS-CoV-2 3CL^pro [3]): showed inhibition activity; inhibition of SARS-CoV 3CLpro activity (SARS-CoV 3CL^pro): inhibit
O=c1c(O)c(-c2ccc(O)cc2)oc2c(O)c(O)cc(O)c12 [Herbacetin] | 59.1 ± 1.9 | 
O=C(O)[C@H]1O[C@@H](Oc2cc3oc(-c4ccccc4)cc(=O)c3c(O)c2O)[C@H](O)[C@@H](O)[C@@H]1O [Baicalin] | ~41 | 
COc1c(O)cc(O)c2c(=O)cc(-c3ccccc3)oc12 [Wogonin] | 6.1 ± 0.8 | % Inhibition at 50 μM (SARS-CoV-2 3CL^pro [1]): not active
O=c1cc(-c2ccccc2)oc2cc(O)c(O)cc12 [6,7-Dihydroxyflavone] | 56.7 ± 2 | 
O=c1cc(-c2ccccc2)oc2cc(O)cc(O)c12 [Chrysin] | 2.6 ± 1.1 | 
O=c1cc(-c2ccc(O)cc2)oc2cc(O)c(O)c(O)c12 [Scutellarein] |  | inhibition of SARS-CoV (SARS-CoV): reported to inhibit
O=c1cc(-c2ccccc2)oc2ccc(O)c(O)c12 [5,6-Dihydroxyflavone] | 26.6 ± 0.4 | 
O=c1c(O)c(-c2cc(O)c(O)c(O)c2)oc2cc(O)cc(O)c12 [Myricetin] | 30.8 ± 4.6 | inhibition of SARS-CoV (SARS-CoV): reported to inhibit
